{"source": "patent EP0674636B1", "about": "“QUINUCLIDINE DERIVATIVES AS SQUALENE SYNTHASE INHIBITORS” (ZENECA LIMITED, priority 1992, dated 1994)", "key": {"Squalene synthase": {"target": "T1, Squalene synthase (Rattus norvegicus, UniProt Q02769)", "T1 construct": "from tissue; host or cells: rat liver microsomes", "T1 sequence (Q02769 1-416)": "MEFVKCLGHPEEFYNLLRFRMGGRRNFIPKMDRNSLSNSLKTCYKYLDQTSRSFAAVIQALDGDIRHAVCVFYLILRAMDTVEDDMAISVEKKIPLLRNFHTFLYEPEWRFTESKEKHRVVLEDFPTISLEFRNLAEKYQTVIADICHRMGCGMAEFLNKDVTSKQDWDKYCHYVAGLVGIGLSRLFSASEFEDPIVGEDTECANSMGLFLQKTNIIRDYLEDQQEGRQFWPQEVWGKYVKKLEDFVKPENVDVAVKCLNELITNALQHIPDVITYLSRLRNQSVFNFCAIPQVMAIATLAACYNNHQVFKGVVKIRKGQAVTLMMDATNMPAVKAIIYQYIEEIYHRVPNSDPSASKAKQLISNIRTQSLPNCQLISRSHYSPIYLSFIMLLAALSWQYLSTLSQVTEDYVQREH", "assay": "Inhibition of squalene synthase (formation of squalene from tritiated farnesyl pyrophosphate by rat liver microsomal protein)", "assay_type": "biochemical", "conditions": "substrate 1-[3H]-farnesyl pyrophosphate 20µM", "description": "(a) Inhibition of Squalene synthase\nIn this test, the ability of a compound to prevent the formation of squalene from a radioactive substrate (tritiated farnesyl pyrophosphate) is assessed.\nThe test compound is incubated at a concentration of 25 micromolar in 200µl of a buffered solution containing potassium phosphate (50mM), MgCl2 (4.95mM), KF (9.9mM), NADPH (0.9mM) and rat liver microsomal protein (20µg). Rat liver microsomes are prepared by the method described in published European Patent Application No. 324,421 and stored in liquid nitrogen prior to assay. Assay vials are kept at 37°C throughout the incubation.\nThe reaction is started with the addition of the substrate (1-[^3H]-farnesyl pyrophosphate), final concentration 20µM, and stopped after 15 minutes reaction time with the addition of 50µl of 4% KOH. The reaction products are separated from unreacted substrate after application to a C-18 octadecyl lccBond column (Analytichem Int product No. 617101). An aqueous fraction is eluted with 250µl of 0.1M KOH. Squalene is then eluted with 1.0 ml 10% ethylacetate in hexane and radioactivity determined. The difference in radioactivity in the presence and absence of the test compound is used to determine the level of inhibition. […] The IC50 can then be determined from a plot of percentage inhibition against concentration of test compound."}, "[1]": {"system": "de novo hepatic cholesterol synthesis", "assay": "Acute rat cholesterol synthesis assay (de novo hepatic cholesterol synthesis from 14C-acetate)", "assay_type": "in vivo", "conditions": "at 50mg/kg; female rats", "description": "(b) Acute rat cholesterol synthesis assay.\nThis is an acute in vivo test in the rat to measure de novo hepatic cholesterol synthesis from exogenously administered ^14C-acetate.\nFemale rats (35 - 55 g) are housed in reverse lighting conditions (red light from 0200h - 1400h) for a period of about 2 weeks prior to test. Animals are allowed free access to chow and drinking water throughout this period. At test, animals should weigh 125 - 150 g.\nTest compounds may be administered by oral gavage, dissolved or suspended in 0.5% polysorbate, or by ip or iv dosing. Control animals receive vehicle alone. After 1 hour the rats are injected ip with 25µCi [2-^14C]-acetate (NEN DUPONT. specific activity, 45-60mCi/mmol NEC-085H, or AMERSHAM specific activity, 50-60mCi/mmol CFA 14) in a volume of 0.25 ml saline (100µCi/ml). After a further hour, rats are terminally anaesthetised with halothane and a blood sample obtained from the abdominal vena cava.\n1ml of plasma is lyophilised and then saponified in 2ml ethanolic KOH (1 part 33% KOH, 9 parts ethanol) at 75°C for 2 hours. After addition of an equal quantity of water, non-saponifiable lipids are extracted with two 5ml volumes of hexane. The hexane extracts are evaporated to dryness and the residues dissolved in ethanol to determine cholesterol specific radioactivity. ED50 values can be determined in the standard way."}}, "data": [{"compound": "OC1(c2ccc(/C=C/c3cccnc3)cc2)CN2CCC1CC2", "note": "(centres unmarked) [Example 2, 3-(4-[(E)-2-(3-pyridyl)vinyl]phenyl)quinuclidin-3-ol]", "values": [{"measurement": "inhibition at 2.5 µM", "setting": "Squalene synthase", "result": "~89", "unit": "%"}, {"measurement": "reduction in the rate of cholesterol biosynthesis", "setting": "[1]", "result": 72, "unit": "%"}]}]}
